Assay results published in patent US11407757B2, “Heterocycle compounds as Tyro3, Axl and MerTK (TAM) family of receptor tyrosine kinase inhibitors” (Development Center for Biotechnology, priority 2017, dated 2022).
pIC50: −log10 of the molar value. Where two headings read alike, the source gives them in different places.

Tests used:
[1] = target: Axl kinase (Homo sapiens (Human), UniProt P30530); assay: Axl kinase assay (AlphaScreen); type: biochemical; conditions: activity level class
[2] = target: Mer kinase (Homo sapiens (Human), UniProt Q12866); assay: Mer kinase assay (AlphaScreen); conditions: read-out: Mer kinase IC50; activity level class
[3] = tested on: Gas6 ligand induced AKT phosphorylation; assay: Gas6 ligand induced AKT phosphorylation, western blotting in H1299 NSCLC cells; type: cell-based; conditions: Homo sapiens, NCI-H1299, at 100 nM treatment, 100 ng/mL Gas6, read-out: inhibition activity against Gas6 ligand induced AKT phosphorylation
[4] = target: Met kinase (Homo sapiens, UniProt P08581); assay: Met kinase assay (AlphaScreen); type: biochemical
[5] = activity level class, read-out: Met kinase IC50

pIC50 [1] | pIC50 [2] | pIC50 [4, 5] | Structure (SMILES) | inhibition at 0.1 µM [3] [%] | pIC50 [4]
> 7.52 | < 6.00 | < 6.00 | Cc1nc2ccc(-c3c[nH]c4nc(Nc5ccc(CN6CCN(C)CC6)cc5)nc(OCC5CCCO5)c34)cc2o1 (stereo not shown) [Compound 67, 5-(2-methylbenzo[d]oxazol-6-yl)-N-(4-((4-methylpiperazin-1-yl)methyl)phenyl)-4-((tetrahydrofuran-2-yl)methoxy)-7H-pyrrolo [2,3-d]pyrimidin-2-amine] | > 50 | 
> 7.52 | < 6.00 | < 6.00 | COCCOc1nc(Nc2ccc(CN3CCN(C)CC3)cc2)nc2[nH]cc(-c3ccc(NC(=O)c4cc(C)n(C)n4)cc3)c12 [Compound 76, N-(4-(4-(2-methoxyethoxy)-2-((4-((4-methylpiperazin-1-yl)methyl)phenyl)amino)-7H-pyrrolo[2,3-d]pyrimidin-5-yl)phenyl)-1,5-dimethyl-7H-pyrazole-3-carboxamide] | > 50 | 
> 7.52 | < 6.00 | < 6.00 | COCCOc1nc(Nc2ccc(CN3CCN(C)CC3)cc2)nc2[nH]cc(-c3ccc(OCc4ccncc4)cc3F)c12 [Compound 93, 5-(2-fluoro-4-(pyridin-4-ylmethoxy)phenyl)-4-(2-methoxyethoxy)-N-(4-((4-methylpiperazin-1-yl)methyl)phenyl)-7H-pyrrolo[2,3-d]pyrimidin-2-amine] | > 50 | 
> 7.52 | < 6.00 | < 6.00 | COCCOc1nc(Nc2ccc(CN3CCN(C)CC3)cc2)nc2[nH]cc(-c3ccc(OCc4cncc(OC)c4)cc3F)c12 [Compound 100, 5-(2-fluoro-4-((5-methoxypyridin-3-yl)methoxy)phenyl)-4-(2-methoxyethoxy)-N-(4-((4-methylpiperazin-1-yl)methyl)phenyl)-7H-pyrrolo[2,3-d]pyrimidin-2-amine] |  | 

Structure (SMILES) | pIC50 [1] | pIC50 [2] | pIC50 [4, 5] | inhibition at 0.1 µM [3] [%] | pIC50 [4]
COCCOc1nc(Nc2ccc(CN3CCN(C)CC3)cc2)nc2[nH]cc(-c3ccc(S(=O)(=O)N4CCCCC4)cc3)c12 [Compound 98, 4-(2-methoxyethoxy)-N-(4-((4-methylpiperazin-1-yl)methyl)phenyl)-5-(4-(piperidin-1-ylsulfonyl)phenyl)-7H-pyrrolo[2,3-d]pyrimidin-2-amine] | > 7.52 | < 6.00 |  |  | 6.00 to 6.40
COCCOc1nc(Nc2ccc(CN3CCC(C)CC3)cc2)nc2[nH]cc(-c3ccc(OCc4ccccn4)cc3F)c12 [Compound 109, 5-(2-fluoro-4-(pyridin-2-ylmethoxy)phenyl)-4-(2-methoxyethoxy)-N-(4-((4-methylpiperidin-1-yl)methyl)phenyl)-7H-pyrrolo[2,3-d]pyrimidin-2-amine] | > 7.52 | > 7.52 |  | > 50 | 6.00 to 6.40
